According to patent publication US20220071947A1, “PHARMACEUTICAL APPLICATION OF DIMYRICETIN-BASED DISELENIDE” (Shanghai Spark Pharmaceutical Co., Ltd., priority 2020, published 2022):
≈ marks a conversion by molar mass, not a printed value. Where two headings read alike, the source gives them in different places.

Key:
[1] = tested on: MGC80-3(MGC-803) human gastric cancer cells; assay: CCK-8 in vitro anti-tumor screening, human gastric cancer cells; type: cell-based; conditions: 24 h
Procedure: (§1) In vitro screening of the efficacy of dimyricetin-based diselenide on 7 different human tumor cells (HEP3B2.1.7, NCI-H460, CALU-3, SW480, SIHA, PC-3, MGC80-3) was performed. Using the CCK-8 detection method, 10 drug concentrations was designed, and each concentration was arranged in 3 re-holes. […], 24 h, 48 h, and 72 h, was selected according to dynamic microscopy. The positive drug was cisplatin. Cisplatin concentration gradient designed: 0 (i.e., the solvent control group), 1 μM, 5 μM, 10 μM, 20 μM, 40 μM, 60 μM, 80 μM, 100 μM, 135 μM. Dimyricetin-based diselenide drug concentration gradient designed: 0 (i.e., solvent control group), 1 μg/ml, 5 μg/ml, 25 μg/ml, 50 μg/ml, 75 μg/ml, 100 μg/ml, 125 μg/ml, 150 μg/ml, 200 μg/ml.
(§2) Step 1. Cell culture. […]
(§3) Step 3. […] Step 3-4, measuring the absorbance value: a microplate reader was used to measure the 450 nm absorbance value, and the inhibitory rate of the drug on the cells was calculated according to the formula. […]
(§4) Experimental group: the absorbance value of the cells and CCK-8 solution in the experimental group
(§5) Negative control: the absorbance value of control cells and CCK-8 solution
(§6) Blank control: absorbance value of medium and CCK-8 solution […]

[2] = tested on: PC-3 human prostate cancer cells; assay: CCK-8 in vitro anti-tumor screening, human prostate cancer cells; type: cell-based; conditions: pc-3 cells
Procedure: as §1, §2, §3, §4, §5, §6

[3] = tested on: NCI-H460 human lung cancer cells (large cell lung cancer); assay: CCK-8 in vitro anti-tumor screening, human lung cancer cells (large cell lung cancer); type: cell-based
Procedure: as §1, §2, §3, §4, §5, §6

[4] = tested on: Siha human cervical squamous cell carcinoma cells; assay: CCK-8 in vitro anti-tumor screening, human cervical squamous cell carcinoma cells; type: cell-based
Procedure: as §1, §2, §3, §4, §5, §6

[5] = tested on: HEP3B2.1.7 human liver cancer cells; assay: CCK-8 in vitro anti-tumor screening, human liver cancer cells; type: cell-based; conditions: HEP3B cells
Procedure: as §1, §2, §3, §4, §5, §6

[6] = tested on: SW480 primary colorectal cancer cells; assay: CCK-8 in vitro anti-tumor screening, primary colorectal cancer cells; type: cell-based, human
Procedure: as §1, §2, §3, §4, §5, §6

2019-nCoV-M^pro protease = 2019-nCoV-M^pro protease (Severe acute respiratory syndrome coronavirus 2, UniProt P0DTD1); assay: M^pro protease activity inhibition, fluorescence resonance energy transfer method; type: biochemical; conditions: 30 nM protease, 20 μM substrate, 10 min preincubation at 30° C.
From the text: This example was the detection of M^pro protease activity inhibition of the targeted 2019-nCoV virus.
The mechanism is: after the new coronavirus invades the cell, it will use the host cell to synthesize two ultra-long replicase polypeptides (pp1a and pp1ab) necessary for self-replication. The replicase polypeptide needs to be further cut into multiple proteins (such as RdRp, helicase, etc.), and then assembled into the replication and transcription machinery required for the virus to initiate the replication of its own genetic material. M^pro has at least 11 cleavage sites on the replicase polypeptide. […]
The fluorescence resonance energy transfer method was used to evaluate the inhibitory activity of dimyricetin-based diselenide on 2019-nCoV-M^pro protease.
Specific detection method: the volume of the entire enzymatic reaction system is 120 μL, the final concentration of protease is 30 nM, and the final concentration of substrate is 20 μM. […] The substrate was added and quickly placed in the microplate reader for reading. […] The test time is 10 min, and the fluorescence value is read every 30 seconds. The final result is the first 2 minutes reading to fit the reaction rate, and compared with the control group (DMSO) to calculate the inhibition rate.

[7] = tested on: Calu-3 human lung adenocarcinoma cells (pleural effusion); assay: CCK-8 in vitro anti-tumor screening, human lung adenocarcinoma cells (pleural effusion); type: cell-based; conditions: calu-3 cells, 24 h
Procedure: as §1, §2, §3, §4, §5, §6

SMILES	IC50 ([1]; MGC803 cells)	IC50 ([2]; 48 h)	IC50 ([3]; 48 h)	IC50 ([4]; 48 h)	IC50 ([5]; 48 h)	IC50 ([6]; 48 h)	IC50 ([1]; Homo sapiens, MGC-803, MGC803 cells)	IC50 (2019-nCoV-M^pro protease; read-out: IC50)	IC50 (2019-nCoV-M^pro protease; read-out: IC50 (μg/ml) (converted))	IC50 ([2]; Homo sapiens, 24 h)	IC50 ([3]; Homo sapiens, NCI-H460, 24 h)	IC50 ([4]; Homo sapiens, 24 h)	IC50 [7]	IC50 ([5]; Homo sapiens, 24 h)	IC50 ([6]; Homo sapiens, 24 h)
N.N.[Cl][Pt][Cl] [Cisplatin, cisplatin, reference compound]	23.2 µM	45.7 µM	47.4 µM	65.5 µM	8.83 µM	46.7 µM	–	–	–	–	–	–	–	–	–
O=c1c(O)c(-c2cc(O)c(O)c(O)c2)oc2c([Se][Se]c3c(O)cc(O)c4c(=O)c(O)c(-c5cc(O)c(O)c(O)c5)oc34)c(O)cc(O)c12 [Dimyricetin-based diselenide, 8,8′-diselanediylbis(3,5,7-trihydroxy-2-(3,4,5-trihydroxyphenyl)-4H-1-benzopyran-4-one)]	–	–	–	–	–	–	9.08 µg/mL	0.807 ± 0.083 µM	0.806 µM	7.72 µg/mL	27.9 µg/mL	19.1 µg/mL	22.9 µg/mL (≈ 29 µM)	25.2 µg/mL	12.4 µg/mL
